Data from patent US20230285372A1, “Pharmaceutical use of (E)-3-arylheterocyclylprop-2-enoic acid derivatives” (MEDCURIUS INC., priority 2020, published 2023).
Counter-ions that a name gives are not always drawn. Like-named read-outs stand apart in the source and are kept apart here.

Experiments:
Nrf2 = Nrf2 protein level in the nucleus of HT-22 cells, Western Blot; assay type: cell-based, mouse; conditions: 1.25 μM and 0.625 μM, 24 hours, vs control group
Description: (§1) As a transcription factor, Nrf2 needs to enter the nucleus and combine with ARE sequence to play a role in transcriptional activation. Therefore, Nrf2 protein level in the nucleus is an important prerequisite for the activation of Nrf2 signaling pathway. NQO-1 and HO-1 are target genes regulated by Nrf2, and the increase of their protein levels is an important sign of activation of the Nrf2 signaling pathway.
(§2) HT-22 cells in logarithmic growth phase were selected, the culture medium was discarded, the cells were digested with 0.25% Trypsin containing EDTA, and cell suspension was made. Cell density was adjusted to 50000/ml with DMEM/F12 medium (containing 10% FBS and 1% double antibody) and it was inoculated to 6-well plate, with 2000 μL/well, the number of cells per well was 100, 000, and the cells were cultured in a cell incubator at 37° C. in an atmosphere containing 5% CO2 for 24 hours. Then, the medium of each well was replaced with new 1980 μL DMEM/F12 medium. […] After 24 hours, the cells were collected, nuclear protein and cytoplasmic protein were extracted, and the level of Nrf2 in the nucleus and the expression of NQO-1 and HO-1 in cytoplasm were detected by Western Blot.

NQO-1 = NQO-1 expression in HT-22 cytoplasm, Western Blot; assay type: cell-based, mouse; conditions: HT-22 cells, 1.25 μM and 0.625 μM, 24 hours, vs control group
Description: as §1, §2

HO-1 = HO-1 expression in HT-22 cytoplasm, Western Blot; assay type: cell-based, mouse; conditions: HT-22 cells, 1.25 μM and 0.625 μM, 24 hours, vs control group
Description: as §1, §2

HT-22 cells = test: Protective effect on HT-22 cell damage caused by L-glutamate monosodium salt; assay type: cell-based, mouse; conditions: Mus musculus, HT-22, 24 h, 15 mM L-glutamate, 24 hours
Experimental: (§3) Well-proliferated HT-22 cells, derived from mouse hippocampal neuronal cells in logarithmic growth phase, were selected, and they were counted after being subjected to trypsin digestion and dispersion. The cell density was adjusted with DMEM/F12 medium (containing 10% FBS and 1% double antibody). The cells were then inoculated in a 96-well plate at a density of 2,000 cells per well, and cultured in a cell incubator at 37° C. in atmosphere containing 5% CO2 for 24 hours. For the control group and the L-glutamate monosodium salt group (model group), serum-free DMEM/F12 medium was added, and the other wells were added with tested compounds of different concentrations; except that the serum-free DMEM/F12 medium was added to the control group. L-glutamate monosodium salt solution at the final concentration of 15 mM was added to the remaining wells. After 24 hours, the cell viability was detected with a luminescent cell viability assay kit.
as §3, with “group,” for “group.”
as §3, with “2.000” for “2,000”, “group,” for “group.”

[1] = test system: MPTP-induced Parkinson's disease mouse; test: Pole-climbing test, MPTP-induced Parkinson's disease mouse; assay type: in vivo; conditions: L-DOPA 10 mg/kg qd intragastric, 40 days; vs model group, p<0.0001
Experimental: (§4) Male C57 mouse were screened for their motor function by a mouse rod-rotating test, and unqualified ones were excluded from the test. […] MPTP was injected subcutaneously every 4 days in the model group and the drug administration group with a dosage of 25 mg/kg for 40 consecutive days. Each group of I-5 was administered once a day at 8:00 am and 8:00 pm (by intragastric administration), twice in total. […] The intragastric volume was 0.1 ml/10 g body weight, and the behavior test was started 40 days later. […] The storage time of the prepared liquid medicine was not more than 24 hours.
A climbing pole in the pole-climbing test was a rough wooden pole with a diameter of 2 cm and a length of 50 cm. The bottom of the wooden pole was located in the mouse home cage and was vertically oriented. When the mouse was placed on top of the wooden pole, it would naturally descend to the bottom of the wooden pole and reach the base of the pole. […] The mouse should have a pre-acclimation period of 2 days prior to the test, training five times a day. To the test day, the time required for the […] to reach the bottom (incubation period) was taken as an evaluation index to observe the effect of the tested compound on the motion ability of the mouse.

[2] = test system: MPTP-induced Parkinson's disease mouse; test: Rotarod test, MPTP-induced Parkinson's disease mouse; assay type: in vivo; conditions: L-DOPA 10 mg/kg qd; vs model group, p<0.0001
Experimental: as §4
On the first day, the mouse acclimated to a rotating speed of 5 rpm for two times, each time for 5 minutes. On the second day, the rotarod turned at a speed of 10 rpm, the mouse acclimated to the speed for two times, each time for 5 minutes. On the third day, the rotarod turned at a speed of 15 rpm, the mouse acclimated to the speed for two times, each time for 3 minutes. On the fourth day, a behavioral test was started. The rotarod turned at a speed of 15 rpm for a period of 3 minutes. The time mouse spent on the rotarod (fall latency) was taken as an index for evaluation of their motor coordination. The test was repeated three times for each animal, with an interval of 30 minutes to eliminate the interference of exercise fatigue on the motion ability of animals.

α-synuclein protein = α-synuclein protein level in midbrain, Western blot, MPTP mouse; assay type: in vivo; conditions: L-DOPA 10 mg/kg; p>0.05
Description: (§5) The core pathological change of Parkinson's disease is the loss of dopaminergic neurons. Tyrosine hydroxylase (TH), the rate-limiting enzyme in dopamine synthesis, is the landmark protein of the dopaminergic neurons. Therefore, the decrease in its level indicates the loss of the dopaminergic neurons. A key protein for the occurrence and development of Parkinson's disease is α-synuclein protein, and the abnormal modification (hyperphosphorylation) of this protein can inhibit microtubule polymerization, enhance oxidative stress, and thus accelerate the death of the dopaminergic neurons.
Male C57 mouse were screened for their motor function by a mouse rod-rotating test, and unqualified ones were excluded from the test. […] MPTP was injected subcutaneously every 4 days in the model group and the drug administration group with a dosage of 25 mg/kg for 40 consecutive days. Each group of I-5 was administered once a day at 8:00 am and 8:00 pm (by intragastric administration), twice in total. […]
Tissues from all the animals were collected on the second day after the end of the behavioral experiment. […] The level of tyrosine hydroxylase (TH), a marker protein of dopaminergic neurons, was detected by immumohistochemistry, and α-synuclein protein level and phosphorylation level of the protein were detected by Western blot.

p-synuclein = test: Phosphorylated α-synuclein (p-synuclein) level in midbrain, Western blot, MPTP mouse; assay type: in vivo; conditions: L-DOPA 10 mg/kg; p>0.05
Description: as §5, §4
Tissues from all the animals were collected on the second day after the end of the behavioral experiment. Hearts from six animals in each group were perfused and fixed with paraformaldehyde for pathological analysis of paraffin sections. Brain tissue of the remaining animals was separated on ice, and brain areas (midbrain) related to Parkinson's disease were collected. After being frozen with liquid nitrogen, they were stored in a refrigerator at −80° C. for protein analysis. The level of tyrosine hydroxylase (TH), a marker protein of dopaminergic neurons, was detected by immumohistochemistry, and α-synuclein protein level and phosphorylation level of the protein were detected by Western blot.

Compound	protein level of Nrf2 in the nucleus (Nrf2)	protein level of NQO-1 (NQO-1)	protein level of HO-1 (HO-1)	viability at 0.078 µM (HT-22 cells; Table 1, Conc 0.078 μm, L-Glu alone 27.73 (I-5 32.92), read-out: cell viability)	viability at 0.156 µM (HT-22 cells; Table 1, Conc 0.156 μm, L-Glu alone 27.73 (I-5 32.92), read-out: cell viability)	viability at 0.313 µM (HT-22 cells; Table 1, Conc 0.313 μm, L-Glu alone 27.73 (I-5 32.92), read-out: cell viability)	viability at 0.625 µM (HT-22 cells; Table 1, Conc 0.625 μm, L-Glu alone 27.73 (I-5 32.92), read-out: cell viability)	viability at 1.25 µM (HT-22 cells; Table 1, Conc 1.25 μm, L-Glu alone 27.73 (I-5 32.92), read-out: cell viability)	viability at 2.5 µM (HT-22 cells; Table 1, Conc 2.5 μm, L-Glu alone 27.73 (I-5 32.92), read-out: cell viability)	viability at 10 µM (HT-22 cells; Table 1, Conc 10 μm, L-Glu alone 27.73 (I-5 32.92), read-out: cell viability)	viability at 0.078 µM (HT-22 cells; Table 2, Conc 0.078 μM, L-Glu alone 27.83, read-out: Visibility %)	viability at 0.156 µM (HT-22 cells; Table 2, Conc 0.156 μM, L-Glu alone 27.83, read-out: Visibility %)	latency of mouse reaching the base of the pole [1]	fall latency in the Rotarod test [2]	α-synuclein protein level in the midbrain (α-synuclein protein)	p-synuclein protein level in the midbrain (p-synuclein)
COC(=O)/C=C/C(=O)OC [DMF, dimethyl fumarate, reference compound]	no statistical difference	no statistical difference	no statistical difference	37.6%	47.5%	52.8%	60%	53.3%	63.6%	70.2%	34.3%	34.9%	–	–	–	–
N[C@@H](Cc1ccc(O)c(O)c1)C(=O)O [L-DOPA, levodopa, reference compound]	–	–	–	–	–	–	–	–	–	–	–	–	significantly shorten the latency	significantly prolonged	no significant effect	no significant effect
